Laboratory results as given in patent US20110201688A1, “N,N'-DI-P-BROMOPHENYL GUANIDINE TREATMENT FOR STROKE AT DELAYED TIMEPOINTS” (UNIVERSITY OF SOUTH FLORIDA, priority 2008, published 2011).

Legend:
cortical neurons [1] = test: Inhibition of [Ca2+]i increases evoked by chemical ischemia (sodium azide/glucose deprivation) in cortical neurons, Fura-2; format: cell-based, rat; conditions: for More effective than DTG in depressing Ca2+ dysregulation: ischemia-induced [Ca2+]i, relative to DTG set to 1
Protocol: Concentration-response relationship for p-Br-DPG inhibition of [Ca^2+]i increases evoked by chemical ischemia (4 mM azide, 0 glucose). […] Dashed line is fit to the data in FIG. 7, shoing p-Br-DPhG inhibition of acidosis-induced Ca^2+ elevations and is included for comparison.
(§1) The effects of sigma receptors on ischemia-induced changes in intracellular calcium concentrations were studied in cultured cortical neurons from embryonic (E18) rats. Dams were euthanatized by decapitation, uterus removed, and embryos dissected out and placed in isotonic buffer containing 137 mM NaCl, 5 mM KCl, 0.2 mM NaH2PO4, 0.2 mM KH2PO4, 5.5 mM glucose, 6 mM sucrose (pH 7.4 with NaOH). Cortex were excised and minced, and tissue digested in isotonic buffer containing 0.25% trypsin/EDTA for 10 min at 37° C. and added to 3× volume of high glucose culture media (Dulbecco's Modified Eagle Media; Invitrogen, Inc., Carlsbad, Calif.), 10% (v/v) fetal calf serum, 100 U/ml penicillin and 0.1 mg/ml streptomycin. Cells were counted on a hemocytometer, plated (0.5×10^6 cells) on 18 mm coverslips coated with poly-1-lysine, and incubated at 37° C. under a 95% air, 5% CO2 atmosphere. After 24 hr the media was replaced with Neurobasal (Invitrogen, Inc., Carlsbad, Calif.) medium supplemented with B27 (Invitrogen, Inc., Carlsbad, Calif.) and 0.5 mM 1-glutamine to limit astrocyte proliferation in the cultures. Cells were used for studies after 14-21 days in culture.
The in vitro NaN3 chemical ischemia disrupts cell metabolism, which ultimately results in plasma membrane dysfunction and intracellular Ca^2+ dysregulation. Fura-2 dye was used to measure changes in intracellular Ca^2+ in the cells. Ischemia was induced in the absence or presence of the drugs to test directly the cell response to sigma receptor activation under ischemic conditions. […] The level of resulting [Ca^2+]i inhibition was compared to DTG, which was set to a relative [Ca^2+]i, level of 1 as indicated by the dashed line. […]

cortical neurons [2] = test: Inhibition of [Ca2+]i increases evoked by acidosis (pH 6.0) in cortical neurons; format: cell-based, rat; conditions: acidosis pH 6.0, cortical neurons; for Kd: n>50, read-out: Kd (Langmuir-Hill fit) for inhibition of [Ca2+]i increases evoked by acidosis
Protocol: Concentration-response relationship for p-Br-DPG and DTG inhibition of [Ca^2+]i increases evoked by acidosis (pH 6.0).
as §1
(Ringel F, et al. Lactacidosis-induced glial cell swelling depends on extracellular Ca^2+. Neurosci Lett. 2006 May 8; 398(3):306-9. Epub 2006 Feb. 15). p-Br-DPG was characterized against DTG to determine the ability to inhibit [Ca^2+]i dysregulation in cortical neurons. Cells were administered the indicated amounts of either p-BrDPhG or DTG, followed by cellular [Ca^2+]i dysregulation stimulation by acidosis (pH 6.0). […] A dashed line is superimposed, showing the acidosis results from FIG. 7 for comparison.

Sprague-Dawley rats = test: Permanent middle cerebral artery occlusion (MCAO), infarct volume by Fluoro-Jade staining; format: in vivo, rat; conditions: sacrificed at 96 h
Protocol: FIG. 9 is a graph showing the data for rats after surgery for permanent middle cerebral arterial occlusion. Rats were treated as indicated at 24, 48, and 72 h and sacrificed at 96 hours. Brain sections were stained with Fluoro-Jade to determine infarct volumes.
11 adult male Sprague-Dawley rats (Harlan, Indianapolis, Ind.) weighing 300 to 350 g were housed in a climate controlled room with water and laboratory chow available ad libidum. Sprague-Dawley rats (300-350 g) were randomly assigned to 1 of 3 groups: MCAO (n=4); MCAO and DTG (n=3); or MCAO and p-Br-DPG (n=4). MCAO surgery was performed as previously reported by Vendrame et al. (Vendrame, et al., Infusion of human umbilical cord blood cells in a rat model of stroke dose-dependently rescues behavioral deficits and reduces infarct volume. Stroke. 2004 October; 35(10):2390-5. Epub 2004 Aug. 19) and originally described by Longa et al. (Longa, et al., Reversible middle cerebral artery occlusion without craniectomy in rats. Stroke. 1989 January; 20(1):84-9). […]
Rats were treated as indicated at 24, 48, and 72 hours after MCAO with vehicle (MCAO), 7.5 mg/kg N,N′-di-p-bromophenyl guanidine (p-Br-DPG) or 7.5 mg/kg 1,3 di-o-tolylguanidine (DTG). […] Stroke-induced damage was quantified using the Fluoro-Jade fluorescence to determine infarct volumes.

Microglia = test: Microglial migration to ATP in Boyden chamber; format: cell-based; conditions: 4 hrs at 37° C.
Protocol: FIG. 10 is a graph showing microglial migration for 4 hrs at 37° C. Control media or 100 μM ATP were used in the absence and presence of DTG or p-Br-DPG (labeled BDTG). Asterisks indicate a significant difference between ATP (p<0.001, n=5) and ATP+BDTG 20 μM (p<0.01, n=5) from DMEM. Significance was determined by one-way ANOVA followed by post-hoc Bonferroni tests.
Microglial migration was assayed using a Boyden chamber fitted with a polycarbonate membrane containing 8 μm pores. Microglia (500,000 cells) were placed in the upper chamber and control media or 100 μM ATP were added in the absence and presence of DTG, or various indicated concentrations of p-Br-DPG to the bottom chamber. Microglia were allowed to migrate for 4 hrs at 37° C., and were subsequently stained with DAPI and counted.

MCAO rats = conditions: cited from earlier work
[3] = higher p-Br-DPG concentrations or DTG with 100 μM ATP

NC(=Nc1ccccc1)Nc1ccccc1 [DPhG]
More effective than DTG in depressing Ca2+ dysregulation (cortical neurons [1]): ~25%

N=C(Nc1ccc(Br)cc1)Nc1ccc(Br)cc1 [p-Br-DPG, N,N′-di-p-bromophenyl guanidine]
Effect against [Ca2+]i dysregulation compared with DTG (cortical neurons [2]): significantly higher effect against [Ca^2+]i than DTG | Kd (cortical neurons [2]): 13.5 µM | Kd (cortical neurons [1]; 4 mM azide, 0 glucose, cortical neurons, n>50, read-out: Kd (Langmuir-Hill fit) for inhibition of [Ca2+]i increases evoked by chemical ischemia): 2.6 µM | More effective than DTG in depressing Ca2+ dysregulation (cortical neurons [1]): ~25% | Infarct volume relative to the MCAO group (Sprague-Dawley rats; 7.5 mg/kg at 24, 48 and 72 h after MCAO, p<0.001): significantly reduced infarct volume | Efficacy on infarct volume compared with DTG treatment (Sprague-Dawley rats; 7.5 mg/kg each at 24, 48 and 72 h after MCAO): slightly more efficacious than DTG treatment | Microglia migration (Microglia; 20 μM with 100 μM ATP, compared to DMEM): significantly increased microglia migration | Microglia migration (Microglia; [3]): inhibited the migration

Cc1ccccc1NC(=N)Nc1ccccc1C [DTG, N,N′-di-o-tolyl guanidine, reference compound]
Kd (cortical neurons [2]): 109 µM | Microglia migration (Microglia; [3]): inhibited the migration | Reduction of infarct size (MCAO rats; MCAO rats (Ajmo 2006)): more than 80% | Reduction of stroke damage (MCAO rats; administered 24 hours after experimental stroke): 85%
